Earlier results, collected in US20200368373A1, “OPTICAL IMAGING AGENTS TARGETING INFLAMMATION” (SORBONNE UNIVERSITE, priority 2018, published 2020).

Molecular target: T1, selectin E (Mus musculus, UniProt Q00690)
T1 sequence (Q00690 22-612): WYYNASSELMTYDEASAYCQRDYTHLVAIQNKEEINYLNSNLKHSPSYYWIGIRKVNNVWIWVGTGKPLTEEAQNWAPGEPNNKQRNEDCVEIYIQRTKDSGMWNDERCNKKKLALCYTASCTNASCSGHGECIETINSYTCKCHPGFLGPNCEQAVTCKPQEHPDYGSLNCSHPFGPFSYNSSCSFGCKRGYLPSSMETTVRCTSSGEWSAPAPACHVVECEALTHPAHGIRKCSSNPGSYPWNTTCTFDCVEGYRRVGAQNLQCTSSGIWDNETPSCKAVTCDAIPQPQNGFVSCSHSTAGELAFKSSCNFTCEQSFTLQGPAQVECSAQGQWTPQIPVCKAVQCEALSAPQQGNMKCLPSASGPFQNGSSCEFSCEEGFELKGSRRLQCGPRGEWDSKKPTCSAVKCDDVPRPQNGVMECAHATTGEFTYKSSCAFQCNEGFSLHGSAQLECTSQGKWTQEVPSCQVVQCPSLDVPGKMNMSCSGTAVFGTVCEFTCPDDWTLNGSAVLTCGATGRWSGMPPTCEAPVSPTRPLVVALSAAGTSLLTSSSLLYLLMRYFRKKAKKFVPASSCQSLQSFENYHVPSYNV
Details: known in the art

- affinity for selectin E: high affinity
Substance: Sialyl Lewis X
